{"source": "patent US7731992B2", "about": "“Method of inhibiting aromatase with specific dietary supplements” (Triarco Industries, Inc., priority 2003, dated 2010)", "key": {"human aromatase (CYP19)": {"biological_target": "T1, human aromatase (CYP19) (Homo sapiens, UniProt P11511)", "T1 construct": "purchased Gentest P260; host or cells: baculovirus-infected insect cells (microsomes)", "T1 sequence (P11511 1-503)": "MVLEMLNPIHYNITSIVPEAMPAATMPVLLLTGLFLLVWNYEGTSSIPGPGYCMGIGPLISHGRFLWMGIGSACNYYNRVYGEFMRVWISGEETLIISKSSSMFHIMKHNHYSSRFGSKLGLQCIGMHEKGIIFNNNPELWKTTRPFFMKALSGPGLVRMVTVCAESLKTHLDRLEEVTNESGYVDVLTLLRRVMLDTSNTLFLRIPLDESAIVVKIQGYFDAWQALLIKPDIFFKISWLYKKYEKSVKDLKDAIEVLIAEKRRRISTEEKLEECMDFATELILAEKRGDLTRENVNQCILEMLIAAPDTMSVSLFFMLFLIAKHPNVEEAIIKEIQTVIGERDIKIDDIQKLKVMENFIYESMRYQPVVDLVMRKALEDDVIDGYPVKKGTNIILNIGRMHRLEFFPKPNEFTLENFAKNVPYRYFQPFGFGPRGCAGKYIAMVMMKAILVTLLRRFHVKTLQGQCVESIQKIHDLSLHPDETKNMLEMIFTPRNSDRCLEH", "test": "Inhibition of CYP19-catalyzed dealkylation of DBF (fluorescence, 96 well plates)", "format": "biochemical", "quoted_text": "The inhibition of aromatase activity was measured in 96 well plates with cDNA-derived enzymes in microsomes prepared from baculovirus-infected insect cells. Dibenzylfluorescien (DBF) was used as a reporter substrate for the activity of the aromatase enzyme.\nIn the inhibition study, the 50 percent inhibitory concentration (IC50) for each substance was determined with the enzyme. A single concentration of DBF, below the apparent Km, and multiple test substance concentrations, separated by approximately ½ log, were tested in duplicate. Metabolism of the model substrate was assayed by the production of fluorescein metabolite, which was detected and measured using fluorescence.\nThe amount of solvent during the assay incubations was the same for all test substance concentrations.\nAs noted above, the assay was conducted in 96 well microplates. Initially, solutions of the substrate in acetonitrite at a concentration equal to the km were prepared. The inhibition of the CYP19-catalyzed dealkylation of DBF was determined, using 4-hydroxyandrostenedione, a known inhibitor of CYP19, as a positive control, and sulfaphenazone, as a negative control. The final concentration of CYP19 (Gentest catalog number P260) was 0.4 pmol/well, and the final concentration of microsomal protein was normalized to 0.25 mg/ml by the addition of the insect cell control protein. The final concentration of substrate was 0.2 μM, and the final concentration of the potassium phosphate buffer was 50 μM. The incubation time was 30 minutes.\nA row of 12 wells was used in each test, and each test of a test substance/substrate combination was duplicated in a second row. In each test, wells 1 to 8 contained serial 1:3 dilutions of the inhibitors in which the maximum concentration of phytosterols was 10 μg/ml, and that of the other test substances was 250 μg/ml, assuming complete solubilization at the desired concentrations, i.e., 2 mg/ml for the phytosterols and 50 mg/ml for the other test substances. Wells 9 and 10 contained no inhibitor, and wells 11 and 12 were blanks in which stop solution was added before the enzyme to test for background fluorescence.\nThe plates were then warmed to 37° C., and incubation was initiated by the addition of the pre-warmed enzyme, additional insect cell control protein in an amount sufficient to provide the desired concentration, and substrate. The final cofactor concentrations were 1.3 μM NADP, 3.3 μM glucose-6-phosphate, and 0.4 U/ml glucose-6-phosphate dehydrogenase. The incubation reactions were stopped after 30 minutes by the addition of 0.075 ml of 2 N NaOH, and fluorescence was measured for each well using a FLUOstar model 403 plate scanner after a post-stop incubation period of about 4 hours. The DBF metabolite fluorescein was measured using an excitation wavelength of about 485 nm and an emission wavelength of about 538 nm."}, "[1]": {"format": "physicochemical", "method": "The test solutions were prepared by adding the test substances to separate aliquots of dimethyl sulfoxide (DMSO). The target concentration of each test substance was 50 mg/ml. […] Mild heat and sonication were applied to aid in obtaining solutions of the other substances at the desired concentration. The black cohosh powder and echinacea were also centrifuged prior to the use of the supernatant in the assay to sediment any particulate matter present in the solutions.\nNone were successful. […] Insoluble material that would not sediment when centrifuged was still present at 2 mg/ml, forming a thin, whitish layer on the surface of the solution. This particulate material was avoided when sampling the sterol solution for the assay."}}, "note": "pIC50: −log10 of the molar value. “And” between values parts separate entries of the source, which are not always exact repeats. Equal values may be shown once. Read-outs that look alike come from different tables or passages of the source.", "data": [{"compound": "C[C@]12CCC(=O)C(O)=C1CC[C@@H]1[C@@H]2CC[C@]2(C)C(=O)CC[C@@H]12", "note": "[4-Hydroxandrostendione, 4-hydroxyandrostenedione, reference compound]", "values": [{"measurement": "pIC50", "setting": "human aromatase (CYP19)", "value": 7.96}]}, {"compound": "Nc1ccc(S(=O)(=O)Nc2ccnn2-c2ccccc2)cc1", "note": "[Sulfaphenazole, reference compound]", "values": [{"measurement": "pIC50", "setting": "human aromatase (CYP19); positive and negative control, DBF 0.2 μM, 30 min, duplicate determinations, read-out: IC50 CYP19/DBF (controls)", "value": "< 5.00"}]}, {"compound": "Astaxanthin", "values": [{"measurement": "Solubility in DMSO (in words)", "setting": "[1]", "value": "dissolve completely"}, {"measurement": "IC50 CYP19/DBF", "setting": "human aromatase (CYP19); cDNA-derived enzyme in microsomes from baculovirus-infected insect cells, DBF 0.2 μM, 30 min, duplicate determinations, concentration assumes complete solubilization", "value": "67 µg/mL and 66 µg/mL"}, {"measurement": "Inhibition of aromatase activity (in words)", "setting": "human aromatase (CYP19); summary statement on Table 2", "value": "most significant inhibition"}]}, {"compound": "Phytosterols", "values": [{"measurement": "Solubility in DMSO (in words)", "setting": "[1]", "value": "little or no solubility in DMSO"}]}]}
